According to patent US7531195B2, “Schisandrin B preparation” (priority 2005, dated 2009):

Test system: mitochondria of brain, heart, liver and skeletal muscle
Assay: Ca2+-induced mitochondrial permeability transition (MPT) in tissues of young adult and middle-aged rats
Format: in vivo, rat
Description: Young adult (8-10 week-old) and middle-aged (12-14 month-old retired breeder) female Sprague-Dawley rats were maintained under a 12-h dark/light cycle at about 22° C. and allowed food and water ad libitum. Experimental protocols were approved by the Research Practice Committee at the Hong Kong University of Science & Technology, Hong Kong. Animals were randomly divided into groups, with 5 animals in each. In the treatment groups, rats were intragastrically administered with Sch B (dissolved/suspended in olive oil) at a daily dose of 10 mg/kg for 15 days. The daily dose is approximated to 1.14 mg/kg for humans after adjusting the inter-species difference in drug distribution in the body. Untreated control animals received olive oil only. Twenty-four hours after the last dosing, animals were sacrificed by decapitation and the whole brain, heart ventricular, liver and skeletal muscle (hind limb) tissues were excised and subjected to biochemical analysis. […]
Tissue homogenates were prepared as described above. […] An aliquot (1.6 ml) of mitochondrial sample (0.5 mg protein/ml) was prepared by mixing mitochondrial fraction with incubation buffer (125 mM sucrose, 65 mM KCl, 10 mM Hepes, pH 7.2, 5 mM succinate (freshly prepared) and 5 μM rotenone (freshly prepared). Aliquots (200 μl) of mitochondrial sample were mixed with 10 μl of cyclosporin A (5 μM in 0.5% ethanol final concentration) or incubation buffer. The mixtures were incubated at 30° C. for 5 min. An aliquot (10 μl) of calcium chloride solution (1 μM final concentration) was then added, and the mixtures were incubated at 30° C. for 5 min. Aliquots (180 μl) of the mixtures were added into 96-well micro-titer plate, and the initial absorbance of the mixtures at 520 nm was monitored for 5 min at 30° C. The swelling reaction was then started by adding 20 μl of K3PO4 (0.5 mM, pH 7.2), and the absorbance at 520 nm of the reaction mixtures was read every 2 min for 30 min at 30° C., using Victor V^2 Multi-Label Counter. […]

Compound: COc1cc2c(c(OC)c1OC)-c1c(cc3c(c1OC)OCO3)CC(C)C(C)C2 (single isomer, unassigned; (-)) [(−) Sch B, (−) Schisandrin B]
- extent of inhibition of sensitivity to Ca2+-induced MPT (middle-aged rats, all tissues except liver, range among tissues): 15-29%
- sensitivity to Ca2+-induced MPT in liver (middle-aged rats, liver): did not show detectable change
- decrease of sensitivity to Ca2+-induced MPT (young adult rat tissues, 10 mg/kg/day x 15, range among tissues): 15-48%
